Tested on: 454973-116-R2-J3-PDC complex spheroid viability
Experiment: Anticancer human tumor 454973-116-R2-J3-PDC patient-derived pancreatic carcinoma cell line growth inhibition [POLQ]
Conditions: for IC50: curve of first compound; for viability, T/C: stronger effect = lower value
Outline: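 PDC + HUVEC + MSC complex spheroids; POLQ inhibitors ± partner drugs; top conc. at/near clinical Cmax, else 10 microM (SN-38 1 microM), half-log dilutions; 37 degrees C, 5% CO2.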

[1] = second compound 0.0316 µM, first compound 0.0316 µM
[2] = second compound 0.0316 µM, first compound 0.1 µM
[3] = second compound 0.0316 µM, first compound 0.316 µM
[4] = second compound 0.0316 µM, first compound 1 µM
[5] = second compound 0.0316 µM, first compound 3.16 µM
[6] = second compound 0.0316 µM, first compound 10 µM
[7] = second compound 0.1 µM, first compound 0.0316 µM
[8] = second compound 0.1 µM, first compound 0.1 µM
[9] = second compound 0.1 µM, first compound 0.316 µM
[10] = second compound 0.1 µM, first compound 1 µM
[11] = second compound 0.1 µM, first compound 3.16 µM
[12] = second compound 0.1 µM, first compound 10 µM
[13] = second compound 0.316 µM, first compound 0.0316 µM
[14] = second compound 0.316 µM, first compound 0.1 µM
[15] = second compound 0.316 µM, first compound 0.316 µM
[16] = second compound 0.316 µM, first compound 1 µM
[17] = second compound 0.316 µM, first compound 3.16 µM
[18] = second compound 0.316 µM, first compound 10 µM
[19] = second compound 1 µM, first compound 0.0316 µM
[20] = second compound 1 µM, first compound 0.1 µM
[21] = second compound 1 µM, first compound 0.316 µM
[22] = second compound 1 µM, first compound 1 µM
[23] = second compound 1 µM, first compound 3.16 µM
[24] = second compound 1 µM, first compound 10 µM
[25] = second compound 3.16 µM, first compound 0.0316 µM
[26] = second compound 3.16 µM, first compound 0.1 µM
[27] = second compound 3.16 µM, first compound 0.316 µM
[28] = second compound 3.16 µM, first compound 1 µM
[29] = second compound 3.16 µM, first compound 3.16 µM
[30] = second compound 3.16 µM, first compound 10 µM
[31] = second compound 10 µM, first compound 0.0316 µM
[32] = second compound 10 µM, first compound 0.1 µM
[33] = second compound 10 µM, first compound 0.316 µM
[34] = second compound 10 µM, first compound 1 µM
[35] = second compound 10 µM, first compound 3.16 µM
[36] = second compound 10 µM, first compound 10 µM
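Further: spheroids exposed to drugs for seven days before measurement.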
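Wherever viability, T/C is given: percent viability relative to DMSO vehicle control wells taken as 100%.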

Question: Which results are given for `COc1cc(C2c3cc4c(cc3C(OC3OC5COC(C)OC5C(O)C3O)C3COC(=O)C23)OCO4)cc(OC)c1O` (stereo unspecified) + COC1C(OC(N)=O)C(O)C(Oc2ccc3c(O)c(NC(=O)c4ccc(O)c(CC=C(C)C)c4)c(=O)oc3c2C)OC1(C)C?
Answer: IC50 (second compound 0.0316 µM): 1590 nM; IC50 (second compound 0.1 µM): 1570 nM; IC50 (second compound 0.316 µM): 1810 nM; IC50 (second compound 1 µM): 1600 nM; IC50 (second compound 3.16 µM): 1490 nM; IC50 (second compound 10 µM): 1330 nM; viability, T/C [1]: 97.7%; viability, T/C [2]: 108%; viability, T/C [3]: 92.7%; viability, T/C [4]: 66.8%; viability, T/C [5]: 25.3%; viability, T/C [6]: 9.55%; viability, T/C [7]: 100%; viability, T/C [8]: 111%; viability, T/C [9]: 93%; viability, T/C [10]: 67.8%; viability, T/C [11]: 23.5%; viability, T/C [12]: 11.8%; viability, T/C [13]: 106%; viability, T/C [14]: 107%; viability, T/C [15]: 93.8%; viability, T/C [16]: 81.2%; viability, T/C [17]: 20.7%; viability, T/C [18]: 9.08%; viability, T/C [19]: 116%; viability, T/C [20]: 97.9%; viability, T/C [21]: 95.6%; viability, T/C [22]: 70.4%; viability, T/C [23]: 21.9%; viability, T/C [24]: 10.6%; viability, T/C [25]: 118%; viability, T/C [26]: 101%; viability, T/C [27]: 96.6%; viability, T/C [28]: 63.6%; viability, T/C [29]: 24.7%; viability, T/C [30]: 9.62%; viability, T/C [31]: 122%; viability, T/C [32]: 94.7%; viability, T/C [33]: 90.6%; viability, T/C [34]: 61.4%; viability, T/C [35]: 21.4%; viability, T/C [36]: 8.32%

Question: Which IC50 (second compound 0.0316 µM) does the source give for `COc1ccc([C@@H](O)c2cc(-c3ncnc4cc(N5CCOCC5)ccc34)c(F)cc2Cl)nn1` + COC1C(OC(N)=O)C(O)C(Oc2ccc3c(O)c(NC(=O)c4ccc(O)c(CC=C(C)C)c4)c(=O)oc3c2C)OC1(C)C here?
Answer: Its IC50 is 9500 nM.

Question: What about the IC50 (second compound 0.1 µM) of the same compound?
Answer: Its IC50 is greater than 10000 nM.

Question: And the IC50 (second compound 0.316 µM)?
Answer: The IC50 was greater than 10000 nM.

Question: What about the IC50 (second compound 1 µM) of the same compound?
Answer: The IC50 was greater than 10000 nM.

Question: And the IC50 (second compound 3.16 µM)?
Answer: The IC50 was greater than 10000 nM.

Question: And the IC50 (second compound 10 µM)?
Answer: The IC50 was greater than 10000 nM.

Question: And the viability, T/C [1]?
Answer: Its viability, T/C is 97.9%.

Question: And the viability, T/C [2]?
Answer: Its viability, T/C is 99.5%.

Question: And the viability, T/C [3]?
Answer: Its viability, T/C is 99%.

Question: And the viability, T/C [4]?
Answer: The viability, T/C was 94.4%.

Question: And the viability, T/C [5]?
Answer: The viability, T/C was 75.2%.

Question: What about the viability, T/C [6] of the same compound?
Answer: Its viability, T/C is 48.8%.

Question: What about the viability, T/C [7] of the same compound?
Answer: Its viability, T/C is 104%.

Question: What about the viability, T/C [8] of the same compound?
Answer: The viability, T/C was 106%.

Question: And the viability, T/C [9]?
Answer: Its viability, T/C is 96.7%.

Question: What about the viability, T/C [10] of the same compound?
Answer: Its viability, T/C is 98.2%.

Question: What about the viability, T/C [11] of the same compound?
Answer: Its viability, T/C is 73.2%.

Question: What about the viability, T/C [12] of the same compound?
Answer: Its viability, T/C is 52.5%.

Question: What about the viability, T/C [13] of the same compound?
Answer: Its viability, T/C is 112%.

Question: And the viability, T/C [14]?
Answer: Its viability, T/C is 107%.

Question: And the viability, T/C [15]?
Answer: The viability, T/C was 98.3%.

Question: What about the viability, T/C [16] of the same compound?
Answer: Its viability, T/C is 95%.

Question: What about the viability, T/C [17] of the same compound?
Answer: Its viability, T/C is 71.7%.

Question: And the viability, T/C [18]?
Answer: Its viability, T/C is 51.3%.

Question: What about the viability, T/C [19] of the same compound?
Answer: Its viability, T/C is 113%.

Question: And the viability, T/C [20]?
Answer: Its viability, T/C is 102%.

Question: And the viability, T/C [21]?
Answer: Its viability, T/C is 115%.

Question: And the viability, T/C [22]?
Answer: Its viability, T/C is 103%.

Question: What about the viability, T/C [23] of the same compound?
Answer: The viability, T/C was 65.6%.

Question: What about the viability, T/C [24] of the same compound?
Answer: The viability, T/C was 51.4%.

Question: And the viability, T/C [25]?
Answer: Its viability, T/C is 112%.

Question: And the viability, T/C [26]?
Answer: The viability, T/C was 107%.

Question: And the viability, T/C [27]?
Answer: The viability, T/C was 98.8%.

Question: What about the viability, T/C [28] of the same compound?
Answer: The viability, T/C was 88.3%.

Question: What about the viability, T/C [29] of the same compound?
Answer: The viability, T/C was 78.8%.

Question: What about the viability, T/C [30] of the same compound?
Answer: The viability, T/C was 54.2%.

Question: And the viability, T/C [31]?
Answer: The viability, T/C was 116%.

Question: What about the viability, T/C [32] of the same compound?
Answer: Its viability, T/C is 93.3%.

Question: What about the viability, T/C [33] of the same compound?
Answer: Its viability, T/C is 93.3%.

Question: What about the viability, T/C [34] of the same compound?
Answer: The viability, T/C was 83.5%.

Question: What about the viability, T/C [35] of the same compound?
Answer: The viability, T/C was 76.3%.

Question: What about the viability, T/C [36] of the same compound?
Answer: Its viability, T/C is 50.6%.

Question: Which results are given for `CC1COCCN1c1cc(C2(O)CC3CCC(C2)O3)c2cnn(-c3ccn[nH]3)c2n1` (stereo unspecified) + COC1C(OC(N)=O)C(O)C(Oc2ccc3c(O)c(NC(=O)c4ccc(O)c(CC=C(C)C)c4)c(=O)oc3c2C)OC1(C)C?
Answer: IC50 (second compound 0.0316 µM): 205 nM; IC50 (second compound 0.1 µM): 233 nM; IC50 (second compound 0.316 µM): 225 nM; IC50 (second compound 1 µM): 197 nM; IC50 (second compound 3.16 µM): 193 nM; IC50 (second compound 10 µM): 217 nM; viability, T/C [1]: 104%; viability, T/C [2]: 74.1%; viability, T/C [3]: 35.3%; viability, T/C [4]: 22.1%; viability, T/C [5]: 25.1%; viability, T/C [6]: 15.6%; viability, T/C [7]: 93.2%; viability, T/C [8]: 76.9%; viability, T/C [9]: 39.6%; viability, T/C [10]: 24.4%; viability, T/C [11]: 22.2%; viability, T/C [12]: 15.8%; viability, T/C [13]: 100%; viability, T/C [14]: 75.6%; viability, T/C [15]: 40.6%; viability, T/C [16]: 18.9%; viability, T/C [17]: 25.8%; viability, T/C [18]: 18.4%; viability, T/C [19]: 102%; viability, T/C [20]: 69.6%; viability, T/C [21]: 37.8%; viability, T/C [22]: 18.7%; viability, T/C [23]: 21.4%; viability, T/C [24]: 20.1%; viability, T/C [25]: 104%; viability, T/C [26]: 73.5%; viability, T/C [27]: 32.6%; viability, T/C [28]: 19.3%; viability, T/C [29]: 24.1%; viability, T/C [30]: 17.6%; viability, T/C [31]: 94.6%; viability, T/C [32]: 68.4%; viability, T/C [33]: 42.3%; viability, T/C [34]: 21.5%; viability, T/C [35]: 25.8%; viability, T/C [36]: 15%

— PubChem BioAssay AID1963846 (Molecular Pharmacology Branch, DTP, NCI, 2024)
